In this test the test system is human JAK1. The test can be described thus: In vitro JAK kinase assay (HTRF, phosphorylation of a biotinylated peptide), JAK1. Conditions: ratio of IC50 values at 1 mM ATP. The format is biochemical. How it is done:
The catalytic activity of JAK1, JAK2 or JAK3 was assayed by measuring the phosphorylation of a biotinylated peptide. The phosphorylated peptide was detected by homogenous time resolved fluorescence (HTRF). […] Reactions were carried out at room temperature for 1 hour and then stopped with 20 μL 45 mM EDTA, 300 nM SA-APC, 6 nM Eu-Py20 in assay buffer (Perkin Elmer, Boston, Mass.). Binding to the Europium labeled antibody took place for 40 minutes and HTRF signal was measured on a Fusion plate reader (Perkin Elmer, Boston, Mass.).
A general note: TR-FRET usually uses a lanthanide donor and a delayed reading to cut background.

Where a name gives a salt, the structure may show the parent alone.

As for `Cc1n[nH]cc1-c1cn(C2(CC#N)CN(c3cc(F)c(C(=O)N[C@@H](C)C(F)(F)F)cc3F)C2)nc1CO` [Example 13, 4-{3-(Cyanomethyl)-3-[3-(hydroxymethyl)-3′-methyl-1H,1′H-4,4′-bipyrazol-1-yl]azetidin-1-yl}-2,5-difluoro-N-[(1S)-2,2,2-trifluoro-1-methylethyl]benzamide], the JAK2/JAK1 is reported as more than 10.
For `C[C@H](NC(=O)c1cc(F)c(N2CC(CC#N)(n3cc(-c4cn[nH]c4)cn3)C2)cc1F)C(F)(F)F` [Example 5, 4-[3-(1H,1′H-4,4′-Bipyrazol-1-yl)-3-(cyanomethyl)azetidin-1-yl]-2,5-difluoro-N-[(1S)-2,2,2-trifluoro-1-methylethyl]benzamide Trifluoroacetate] the value was more than 10; for `Cc1n[nH]c(C)c1-c1cnn(C2(CC#N)CN(c3cnc(C(=O)N[C@@H](C)C(F)(F)F)cn3)C2)c1` [Example 9, 5-[3-(Cyanomethyl)-3-(3′,5′-dimethyl-1H,1′H-4,4′-bipyrazol-1-yl)azetidin-1-yl]-N-[(1S)-2,2,2-trifluoro-1-methylethyl]pyrazine-2-carboxamide Trifluoroacetate], more than 10; for `Cc1n[nH]cc1-c1cn(C2(CC#N)CN(c3cnc(C(=O)NC(C)C)cn3)C2)nc1C` [Example 6, 5-[3-(Cyanomethyl)-3-(3,3′-dimethyl-1H,1′H-4,4′-bipyrazol-1-yl)azetidin-1-yl]-N-isopropylpyrazine-2-carboxamide Trifluoroacetate], more than 10.
The value for `Cc1[nH]ncc1-c1cnn(C2(CC#N)CN(c3cnc(C(=O)N[C@@H](C)C(F)(F)F)cn3)C2)c1` [Example 1, 5-[3-(Cyanomethyl)-3-(3′-methyl-1H,1′H-4,4′-bipyrazol-1-yl)azetidin-1-yl]-N-[(1S)-2,2,2-trifluoro-1-methylethyl]pyrazine-2-carboxamide trifluoroacetate] was more than 10; that for `Cc1n[nH]cc1-c1cnn(C2(CC#N)CN(c3ccc(C(=O)NC(C)C)cc3)C2)c1` [Example 3, 4-[3-(Cyanomethyl)-3-(3′-methyl-1H,1′H-4,4′-bipyrazol-1-yl)azetidin-1-yl]-N-isopropylbenzamide Trifluoroacetate] was more than 10; that for `Cc1n[nH]cc1-c1cnn(C2(CC#N)CN(c3cnc(C(=O)NC(C)C)cn3)C2)c1` [Example 2, 5-[3-(Cyanomethyl)-3-(3′-methyl-1H,1′H-4,4′-bipyrazol-1-yl)azetidin-1-yl]-N-isopropylpyrazine-2-carboxamide Trifluoroacetate] was more than 10.

The values above are taken from patent publication US10435392B2, “Bipyrazole derivatives as JAK inhibitors” (Incyte Corporation, priority 2013, dated 2019).
